In paper PMC6675714 (Cancer Medicine, 2019):
Entries after “also recorded” stand apart in the source; their conditions may differ.

Assays:
Caki‐1 xenograft tumors = assay: Cell proliferation (Ki67) and apoptosis (cleaved caspase 3) in tumor sections; assay type: in vivo, NOD.CB17‐Prkdc SCID/J mice; settings: tumors at 21‐day trial endpoint
Method: Tissue sections were prepared by embedding in OCT (Thermo Fisher Scientific, Waltham, MA) followed by freezing at − 80°C. Vessel leakiness was evaluated following tail‐vein injection of 100 μL of Dextran Texas Red (Invitrogen). Vessel integrity was assessed after tail‐vein injection of 50 μL of lectin labelled with FITC (Vector Labs, Burlingame, CA). Apoptotic cells were visualized using an anti‐rabbit cleaved caspase 3 primary antibody (Cell Signaling Technology, Danvers, MA) and an goat‐anti‐rabbit Alexa Fluor 594 secondary antibody (Cell Signaling Technology); proliferating cells were visualized using an anti‐mouse Ki67 primary antibody (Cell Signaling Technology) and an goat‐anti‐mouse Alexa Fluor 488 secondary antibody (Cell Signaling Technology); DAPI containing ProLong Gold Antifade Mounting Medium (Cell Signaling Technology) was used to visualize the nuclei and mount the slide.
For all histological analyses, tumors from treated mice were compared to those of the vehicle control of the intervention trial. Samples from 4 mice per treatment group were analyzed. Stained samples were imaged at 20× magnification (ZEISS LSM 700). Cell proliferation and apoptosis were quantified one channel at a time using ImageJ (NIH, open access software) and were calculated as the percentage of Ki67 positive or cleaved caspase 3 positive cells per DAPI positive cells per field of view.

[1] = Body and organ weights at necropsy after the trial; assay type: in vivo, NOD.CB17‐Prkdc scid/J mice
xenograft Caki‐1 tumors = assay: Xenograft renal cancer intervention (efficacy) trial; assay type: in vivo, NOD.CB17‐Prkdc SCID/J mice; settings: 10 mg/kg/72h ip
Text: Tissue samples were processed as described above and analyzed for Ru and Au content using ICP‐MS
Percent of change in tumor burden in a cohort of 3 females and 3 males NOD.CB17‐Prkdc scid/J mice inoculated subcutaneously with 5 × 10^6 Caki‐1 cells. The treatment started when tumors were palpable (~5 mm diameter). […] (A) Representative histological samples of tumors resected from each treatment group.

[2] = Histopathology of organs and tissues after the trial; assay type: in vivo, NOD.CB17‐Prkdc scid/J mice; parameters: key to Histopathological finding: Lungs / Histopathological finding: Thymus / Histopathological finding: Kidneys / Histopathological finding: Gallbladder / Histopathological finding: Stomach / Histopathological finding: Cecum / Histopathological finding: Colon / Histopathological finding: Mesenteric lymph node / Histopathological finding: Salivary glands / Histopathological finding: Submandibular lymph node / Histopathological finding: Uterus / Histopathological finding: Cervix / Histopathological finding: Vagina / Histopathological finding: Testes/epididymis / Histopathological finding: Prostate / Histopathological finding: Seminal vesicles / Histopathological finding: Urinary bladder / Histopathological finding: Adrenals / Histopathological finding: Ovaries / Histopathological finding: Oviducts / Histopathological finding: Trachea / Histopathological finding: Esophagus / Histopathological finding: Thyroid / Histopathological finding: Parathyroid / Histopathological finding: Mammary glands / Histopathological finding: Bones (femur, tibia, sternum, vertebrae) / Histopathological finding: Stifle joint / Histopathological finding: Skeletral muscles (hind limb, spine) / Histopathological finding: Nerves (hind limb, spine) / Histopathological finding: Spinal cord / Histopathological finding: Oral cavity / Histopathological finding: Teeth / Histopathological finding: Nasal cavity / Histopathological finding: Eyes / Histopathological finding: Harderian gland / Histopathological finding: Bones (skull) / Histopathological finding: Pituitary / Histopathological finding: Brain / Histopathological finding: Ears / Histopathological finding: Heart: N: Normal
Text: At the end of the intervention trial, female and male NOD.CB17‐Prkdc scid/J mice bearing subcutaneous Caki‐1 tumors were euthanized, blood was collected by intracardiac puncture and the carcasses were perfused with 4% PFA. Lung, kidney, heart, spleen, lymphatic tissue were collected, mounted in paraffin, sectioned and stained by Hemotoxilyn & Eosin. Samples were imaged at 20× under light microscope for analysis.

[3] = 21 day course once/72h, mean and SEM, n = 3
[4] = Supplementary Table 3, end of trial

**Q.** What does the source list for “[Cl2(p‐cymene)Ru(μ‐dppm)Au(IMes)]ClO4 [RANCE‐1]”?
**A.** Apoptotic cells (cleaved caspase 3 positive) per DAPI positive cells (Caki‐1 xenograft tumors): 1.6%; Proliferating cells (Ki67 positive) per DAPI positive cells (Caki‐1 xenograft tumors): 2%; Reduction of tumor cell proliferation vs Veh (Caki‐1 xenograft tumors): 18 fold; Decrease in apoptosis (Caki‐1 xenograft tumors; vs Vehicle): 0.4%; Decrease in cell proliferation (Caki‐1 xenograft tumors; vs Vehicle): 36%; Average weight: Average Kidney [1, 3]: 0.17 ± 0.06 g; Average weight: Body [1, 3]: 21.31 ± 5.1 g; Average weight: Heart [1, 3]: 0.11 ± 0.05 g; Average weight: Liver [1, 3]: 1.15 ± 0.37 g; Average weight: Spleen [1, 3]: 0.04 ± 0.017 g; Body weight [1, 4]: 18.731 g; Heart weight [1, 4]: 0.078 g; Left Kidney weight [1, 4]: 0.148 g; Liver weight [1, 4]: 0.974 g; Right Kidney weight [1, 4]: 0.140 g; Spleen weight [1, 4]: 0.035 g; Total body weight or organ weight, treated vs control mice ([1]; end of the trial): no notable difference; Weight and well‐being during the trial (xenograft Caki‐1 tumors; 21 days): no significant change in weight or any decline in the well‐being; Tumor burden after treatment (xenograft Caki‐1 tumors; 21 days of treatment, total of 7 doses): no change in tumor burden; Histological changes in liver, spleen, or kidney tissue ([2]; H&E, end of the 21 day efficacy trial): does not induce histological changes; Histopathological finding: Adrenals ([2]; end of 21 day trial): N; Histopathological finding: Bone marrow (femur, tibia, sternum, vertebrae) ([2]; end of 21 day trial): Moderate diffuse granulocytic hyperplasia; Moderate diffused Erythroid hypoplasia.; Histopathological finding: Bones (femur, tibia, sternum, vertebrae) ([2]; end of 21 day trial): N; Histopathological finding: Bones (skull) ([2]; end of 21 day trial): N; Histopathological finding: Brain ([2]; end of 21 day trial): N; Histopathological finding: Cecum ([2]; end of 21 day trial): N; Histopathological finding: Cervix ([2]; end of 21 day trial): N; Histopathological finding: Colon ([2]; end of 21 day trial): N; Histopathological finding: Duodenum, jejunum, ileum ([2]; end of 21 day trial): Mild peritonitis and serositis, neutrophilic and histiocytic, multifocal.; Histopathological finding: Ears ([2]; end of 21 day trial): N; Histopathological finding: Esophagus ([2]; end of 21 day trial): N; Histopathological finding: Eyes ([2]; end of 21 day trial): N; Histopathological finding: Gallbladder ([2]; end of 21 day trial): N; Histopathological finding: Harderian gland ([2]; end of 21 day trial): N; Histopathological finding: Heart ([2]; end of 21 day trial): N; Histopathological finding: Kidneys ([2]; end of 21 day trial): N; Histopathological finding: Liver ([2]; end of 21 day trial): Minimal extramedullary hematopoiesis. Minimal hepatocyte hypertrophy. Mild vacuolar change (microvesicular); Histopathological finding: Lungs ([2]; end of 21 day trial): N; Histopathological finding: Mammary glands ([2]; end of 21 day trial): N; Histopathological finding: Mesenteric lymph node ([2]; end of 21 day trial): N; Histopathological finding: Nasal cavity ([2]; end of 21 day trial): N; Histopathological finding: Nerves (hind limb, spine) ([2]; end of 21 day trial): N; Histopathological finding: Oral cavity ([2]; end of 21 day trial): N; Histopathological finding: Ovaries ([2]; end of 21 day trial): N; Histopathological finding: Oviducts ([2]; end of 21 day trial): N; Histopathological finding: Pancreas ([2]; end of 21 day trial): Minimal peritonitis, neutrophilic and histiocytic, multifocal; Histopathological finding: Parathyroid ([2]; end of 21 day trial): N; Histopathological finding: Pituitary ([2]; end of 21 day trial): N; Histopathological finding: Prostate ([2]; end of 21 day trial): N; Histopathological finding: Salivary glands ([2]; end of 21 day trial): N; Histopathological finding: Seminal vesicles ([2]; end of 21 day trial): N; Histopathological finding: Skeletral muscles (hind limb, spine) ([2]; end of 21 day trial): N; Histopathological finding: Spinal cord ([2]; end of 21 day trial): N; Histopathological finding: Spleen ([2]; end of 21 day trial): Mild increase in extramedullary hematopoiesis with granulocyte hyperplasia.; Histopathological finding: Stifle joint ([2]; end of 21 day trial): N; Histopathological finding: Stomach ([2]; end of 21 day trial): N; Histopathological finding: Submandibular lymph node ([2]; end of 21 day trial): N; Histopathological finding: Teeth ([2]; end of 21 day trial): N; Histopathological finding: Testes/epididymis ([2]; end of 21 day trial): N; Histopathological finding: Thymus ([2]; end of 21 day trial): N; Histopathological finding: Thyroid ([2]; end of 21 day trial): N; Histopathological finding: Trachea ([2]; end of 21 day trial): N; Histopathological finding: Urinary bladder ([2]; end of 21 day trial): N; Histopathological finding: Uterus ([2]; end of 21 day trial): N; Histopathological finding: Vagina ([2]; end of 21 day trial): N; Adverse effects / pathological complications on histological evaluation ([2]; forty‐seven organ and tissue types, after 21 days of treatment): no signs of pathological complications; also recorded: no significant adverse effects
